This is an account of results in patent US11957687B2 (REGENERON PHARMACEUTICALS, INC., priority 2019, dated 2024).

For this assay, the target named is HSD17B13 (Homo sapiens (Human), UniProt Q7Z5P4). Briefly: HSD17B13 enzymatic inhibition assay (150 nM or 50 nM HSD17B13). The following applies: 50 nM HSD17B13; read-out: Inhibition of 50 nM of HSD17B13 IC50. The assay is classed as biochemical.
Sequence of HSD17B13 (Q7Z5P4 other isoform, or with tags, fused parts or gaps): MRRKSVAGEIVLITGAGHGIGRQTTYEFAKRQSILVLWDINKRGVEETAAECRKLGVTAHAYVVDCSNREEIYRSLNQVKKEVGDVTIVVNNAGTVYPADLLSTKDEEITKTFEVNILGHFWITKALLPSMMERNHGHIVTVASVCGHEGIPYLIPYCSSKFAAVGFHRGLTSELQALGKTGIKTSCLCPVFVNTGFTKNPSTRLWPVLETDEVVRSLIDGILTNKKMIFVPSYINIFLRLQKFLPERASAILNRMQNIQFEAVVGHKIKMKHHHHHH

As to `Cc1ccc2c(c1)Sc1cc(C)ccc1C2NC(=O)c1cc(-c2ncccn2)c(C(F)(F)F)[nH]c1=O` [Compound 507, N-(3,6-dimethyl-9H-thioxanthen-9-yl)-2-oxo-5-(pyrimidin-2-yl)-6-(trifluoromethyl)-1,2-dihydropyridine-3-carboxamide], the half-maximal inhibitory concentration (IC50) was 0.04 µM.
On to `CCN1CCN(c2cc(C(=O)NC3c4ccc(C)cc4Oc4cc(C)ccc43)c(=O)[nH]c2C(F)(F)F)CC1` [Compound 512, N-(3,6-dimethyl-9H-xanthen-9-yl)-5-(4-ethylpiperazin-1-yl)-2-oxo-6-(trifluoromethyl)-1,2-dihydropyridine-3-carboxamide], for which the IC50 is 0.09 µM.
As to `CC(C)(C)OC(=O)Nc1ccc(CSc2ncc(C(=O)NC3c4ccc(Cl)cc4Oc4cc(Cl)ccc43)c(=O)[nH]2)cc1` [Compound 513, tert-butyl (4-(((5-((3,6-dichloro-9H-xanthen-9-yl)carbamoyl)-6-oxo-1,6-dihydropyrimidin-2-yl)thio)methyl)phenyl)carbamate], the IC50 is 0.92 µM.
Consider `Cc1ccc2c(c1)Oc1cc(C)ccc1C2NC(=O)c1cc(Oc2ccccc2)c(C(F)(F)F)[nH]c1=O` [Compound 514, N-(3,6-dimethyl-9H-xanthen-9-yl)-2-oxo-5-phenoxy-6-(trifluoromethyl)-1,2-dihydropyridine-3-carboxamide], for which the IC50 was found to be 0.02 µM.
With `Cc1ccc2c(c1)Sc1cc(C)ccc1C2NC(=O)c1cc(C)c(C(F)(F)F)[nH]c1=O` [Compound 515, N-(3,6-dimethyl-9H-thioxanthen-9-yl)-5-methyl-2-oxo-6-(trifluoromethyl)-1,2-dihydropyridine-3-carboxamide], the IC50 worked out at 0.03 µM.
With `Cc1ccc2c(c1)Oc1cc(C)ccc1C2NC(=O)c1cc(C2=CCNCC2)c(C(F)(F)F)[nH]c1=O` [Compound 516, N-(3,6-dimethyl-9H-xanthen-9-yl)-6-oxo-2-(trifluoromethyl)-1,1′,2′,3′,6,6′-hexahydro-[3,4′-bipyridine]-5-carboxamide], the IC50 turned out to be 0.2 µM.
Consider `O=C(NC1c2ccc(Cl)cc2Oc2cc(Cl)ccc21)c1cnc(COc2ccc(C(F)(F)F)cc2)[nH]c1=O` [Compound 517, N-(3,6-dichloro-9H-xanthen-9-yl)-6-oxo-2-((4-(trifluoromethyl)phenoxy)methyl)-1,6-dihydropyrimidine-5-carboxamide], for which the IC50 is 0.57 µM.
For the molecule `Cc1ccc2c(c1)NCCC2NC(=O)c1ccc(C(F)(F)F)[nH]c1=O` (centres unmarked) [Compound 518, N-(7-methyl-1,2,3,4-tetrahydroquinolin-4-yl)-2-oxo-6-(trifluoromethyl)-1,2-dihydropyridine-3-carboxamide], the IC50 came out at 0.56 µM.
In the case of `Nc1ccc(CSc2ncc(C(=O)NC3c4ccc(Cl)cc4Oc4cc(Cl)ccc43)c(=O)[nH]2)cc1C(F)(F)F` [Compound 522, 2-((4-amino-3-(trifluoromethyl)benzyl)thio)-N-(3,6-dichloro-9H-xanthen-9-yl)-6-oxo-1,6-dihydropyrimidine-5-carboxamide], the 50% inhibitory concentration (IC50) stood at 0.61 µM.
With `Cc1ccc2c(c1)Oc1cccc(C)c1C2NC(=O)c1cc(CCN(C)C)c(C(F)(F)F)[nH]c1=O` (centres unmarked) [Compound 523, N-(1,6-dimethyl-9H-xanthen-9-yl)-5-(2-(dimethylamino)ethyl)-2-oxo-6-(trifluoromethyl)-1,2-dihydropyridine-3-carboxamide], the concentration for half-maximal inhibition (IC50) was greater than 10 µM.
As to `CNCCc1cc(C(=O)NC2c3ccc(C)cc3Oc3cccc(C)c32)c(=O)[nH]c1C(F)(F)F` (centres unmarked) [Compound 524, N-(1,6-dimethyl-9H-xanthen-9-yl)-5-(2-(methylamino)ethyl)-2-oxo-6-(trifluoromethyl)-1,2-dihydropyridine-3-carboxamide], the IC50 stood at 9.33 µM.
Under `CNCc1cc(C(=O)NC2c3ccc(C)cc3Oc3cccc(C)c32)c(=O)[nH]c1C(F)(F)F` (centres unmarked) [Compound 525, N-(1,6-dimethyl-9H-xanthen-9-yl)-5-((methylamino)methyl)-2-oxo-6-(trifluoromethyl)-1,2-dihydropyridine-3-carboxamide] stands 6.51 µM; under `Cc1ccc2c(c1)Oc1cccc(C)c1C2NC(=O)c1cc(CN(C)C)c(C(F)(F)F)[nH]c1=O` (centres unmarked) [Compound 526, N-(1,6-dimethyl-9H-xanthen-9-yl)-5-((dimethylamino)methyl)-2-oxo-6-(trifluoromethyl)-1,2-dihydropyridine-3-carboxamide], 3.78 µM.
Take `N#Cc1cccc2c1C(NC(=O)c1ccc(C(F)(F)F)[nH]c1=O)c1ccccc1O2` (centres unmarked) [Compound 527, N-(1-cyano-9H-xanthen-9-yl)-2-oxo-6-(trifluoromethyl)-1,2-dihydropyridine-3-carboxamide]: the 50% inhibitory concentration (IC50) is 0.99 µM.
For `O=C(NC1c2ccc(Cl)cc2Oc2cccc(Cl)c21)c1cnc(SCc2ccccc2C(F)(F)F)[nH]c1=O` (centres unmarked) [Compound 529, N-(1,6-dichloro-9H-xanthen-9-yl)-6-oxo-2-((2-(trifluoromethyl)benzyl)thio)-1,6-dihydropyrimidine-5-carboxamide], the half-maximal inhibitory concentration (IC50) was greater than 10 µM.
With `CCc1cccc2c1CCCC2NC(=O)c1ccc(C(F)(F)F)[nH]c1=O` (centres unmarked) [Compound 530, N-(5-ethyl-1,2,3,4-tetrahydronaphthalen-1-yl)-2-oxo-6-(trifluoromethyl)-1,2-dihydropyridine-3-carboxamide], the IC50 is greater than 10 µM.
As to `CCCc1cccc2c1CCCC2NC(=O)c1ccc(C(F)(F)F)[nH]c1=O` (centres unmarked) [Compound 531, 2-oxo-N-(5-propyl-1,2,3,4-tetrahydronaphthalen-1-yl)-6-(trifluoromethyl)-1,2-dihydropyridine-3-carboxamide], the IC50 was greater than 10 µM.
Then `C=CCc1cccc2c1CCCC2NC(=O)c1ccc(C(F)(F)F)[nH]c1=O` (centres unmarked) [Compound 532, N-(5-allyl-1,2,3,4-tetrahydronaphthalen-1-yl)-2-oxo-6-(trifluoromethyl)-1,2-dihydropyridine-3-carboxamide], with 5.2 µM.
With `O=C(NC1c2ccc(Cl)cc2Oc2cc(Cl)ccc21)c1cnc(COc2cccc(C(F)(F)F)c2)[nH]c1=O` [Compound 534, N-(3,6-dichloro-9H-xanthen-9-yl)-6-oxo-2-((3-(trifluoromethyl)phenoxy)methyl)-1,6-dihydropyrimidine-5-carboxamide], the IC50 is 1.08 µM.
`Cc1ccc2c(c1)Sc1cc(C)ccc1C2NC(=O)c1cc(Br)c(C(F)(F)F)[nH]c1=O` [Compound 535, 5-bromo-N-(3,6-dimethyl-9H-thioxanthen-9-yl)-2-oxo-6-(trifluoromethyl)-1,2-dihydropyridine-3-carboxamide]: the IC50 was found to be 0.05 µM.
In the case of `C=Cc1ccc2c(c1)C(NC(=O)c1ccc(C(F)(F)F)[nH]c1=O)c1ccccc1S2` (centres unmarked) [Compound 536, 2-oxo-6-(trifluoromethyl)-N-(2-vinyl-9H-thioxanthen-9-yl)-1,2-dihydropyridine-3-carboxamide], the IC50 was 0.32 µM.
Under `CCc1ccc2c(c1)C(NC(=O)c1ccc(C(F)(F)F)[nH]c1=O)c1ccccc1S2` (centres unmarked) [Compound 537, N-(2-ethyl-9H-thioxanthen-9-yl)-2-oxo-6-(trifluoromethyl)-1,2-dihydropyridine-3-carboxamide] stands 0.15 µM; under `C=Cc1cc(C(=O)NC2c3ccc(C)cc3Sc3cc(C)ccc32)c(=O)[nH]c1C(F)(F)F` [Compound 538, N-(3,6-dimethyl-9H-thioxanthen-9-yl)-2-oxo-6-(trifluoromethyl)-5-vinyl-1,2-dihydropyridine-3-carboxamide], 0.04 µM.

The IC50 is the concentration that gives 50% inhibition.
